# Laboratory results as given in US6610846B1, “Heteroaromatic glucokinase activators” (Hoffman-La Roche Inc., priority 1999, dated 2003).
# Test system: C57BL/6J mice
# Experiment: Glucokinase activator in vivo screen (blood glucose after oral dosing)
# Details: administered orally, 50 mg/kg, C57BL/6J mice fasted two hours; decrease in blood glucose compared to vehicle over six hours (Example B)
# Method: Glucokinase Activator In Vivo Screen Protocol
# C57BL/6J mice are orally dosed via gavage with Glucokinase (GK) activator at 50 mg/kg body weight following a two hour fasting period. Blood glucose determinations are made five times during the six hour post-dose study period. Mice (n=6) are weighed and fasted for a two hour period prior to oral treatment.
row,Compound,glucokinase activator in vivo activity
1,"CS(=O)(=O)c1ccc(C(CC2CCCC2)C(=O)Nc2nccs2)cc1 (centres unmarked) [Example 3(A), 3-Cyclopentyl-2-(4-methanesulfonyl-phenyl)-N-thiazol-2-yl-propionamide]",excellent glucokinase activator in vivo activity
2,"CS(=O)(=O)c1ccc(C(CC2CCCC2)C(=O)Nc2nccs2)cc1Cl (centres unmarked) [Example 12, 2-[3-Chloro-4-methanesulfonyl-phenyl]-3-cyclopentyl-N-thiazol-2-yl-propionamide]",excellent glucokinase activator in vivo activity
3,"CS(=O)(=O)c1ccc([C@@H](CC2CCCC2)C(=O)Nc2nccs2)cc1 [Example 13, (2R)-3-Cyclopentyl-2-(4-methanesulfonylphenyl)-N-thiazol-2-yl-propionamide]",excellent glucokinase activator in vivo activity
4,"Cc1ccc(NC(=O)C(CC2CCCC2)c2ccc(S(=O)(=O)C(F)(F)F)cc2)nc1 (centres unmarked) [Example 43(B)(b), 3-Cyclopentyl-N-(5-methyl-pyridin-2-yl)-2-(4-trifluoromethanesulfonyl-phenyl)-propionamide]",excellent glucokinase activator in vivo activity
5,"COC(=O)c1ccc(NC(=O)C(CC2CCCC2)c2ccc(S(=O)(=O)C(F)(F)F)cc2)nc1 (centres unmarked) [Example 43(B)(c), 6-[3-Cyclopentyl-2-(4-trifluoromethanesulfonyl-phenyl)-propionylamino]-nicotinic acid methyl ester]",excellent glucokinase activator in vivo activity
6,"COC(=O)c1ccc(NC(=O)[C@H](CC2CCCC2)c2ccc(Cl)c(Cl)c2)nc1 [Example 45, 6-[3-Cyclopentyl-2(R)-(3,4-dichloro-phenyl)-propionylamino]-nicotinic acid methyl ester]",excellent glucokinase activator in vivo activity
7,"O=C(Nc1ccc(Cl)cn1)[C@H](CC1CCCC1)c1ccc(Cl)c(Cl)c1 [Example 54(A), N-(5-Chloro-pyridin-2-yl)-3-cyclopentyl-2(R)-(3,4-dichloro-phenyl)-propionamide]",excellent glucokinase activator in vivo activity
8,"O=C(Nc1ccccn1)[C@H](CC1CCCC1)c1ccc(Cl)c(Cl)c1 [Example 54(B)(a), 3-Cyclopentyl-2(R)-(3,4-dichloro-phenyl)-N-pyridin-2-yl-propionamide]",excellent glucokinase activator in vivo activity
9,"CS(=O)(=O)c1ccc(C(CC2CCCC2)C(=O)Nc2ccccn2)cc1Cl (centres unmarked) [Example 92, 2-(3-Chloro-4-methanesulfonyl-phenyl)-3-cyclopentyl-N-pyridin-2-yl-propionamide]",excellent glucokinase activator in vivo activity
10,"CS(=O)(=O)c1ccc(C(CC2CCCC2)C(=O)Nc2ccc(Br)cn2)cc1Cl (centres unmarked) [Example 93, N-(5-Bromo-pyridin-2-yl)-2-(3-chloro-4-methanesulfonyl-phenyl)-3-cyclopentyl-propionamide]",excellent glucokinase activator in vivo activity
11,"CS(=O)(=O)c1ccc([C@@H](CC2CCCC2)C(=O)Nc2ccc(Br)cn2)cc1Cl [Example 99, N-(5-Bromo-pyridin-2-yl)-2(R)-(3-chloro-4-methanesulfonyl-phenyl)-3-cyclopentyl-propionamide]",excellent glucokinase activator in vivo activity
12,"O=C(Nc1ccc(CO)cn1)[C@H](CC1CCCC1)c1ccc(Cl)c(Cl)c1 [Example 106, 3-Cyclopentyl-2(R)-(3,4-dichloro-phenyl)-N-(5-hydroxymethyl-pyridin-2-yl)propionamide]",excellent glucokinase activator in vivo activity
13,"CS(=O)(=O)c1ccc([C@@H](CC2CCCC2)C(=O)Nc2ncc(Br)s2)cc1 [Example 133, N-(5-Bromo-thiazol-2-yl)-3-cyclopentyl-2(R)-(4-methanesulfonyl-phenyl)-propionamide]",excellent glucokinase activator in vivo activity
14,"Cc1csc(NC(=O)[C@H](CC2CCCC2)c2ccc(S(C)(=O)=O)c(Cl)c2)n1 [Example 139, 2(R)-(3-Chloro-4-methanesulfonyl-phenyl)-3-cyclopentyl-N-(4-methyl-thiazol-2-yl)-propionamide]",excellent glucokinase activator in vivo activity
15,"Cc1ccc(NC(=O)[C@H](CC2CCCC2)c2ccc(S(C)(=O)=O)c(Cl)c2)nc1 [Example 140, 2(R)-(3-Chloro-4-methanesulfonyl-phenyl)-3-cyclopentyl-N-(5-methyl-pyridin-2-yl)-propionamide]",excellent glucokinase activator in vivo activity
16,"CS(=O)(=O)c1ccc(C(CC2CCCC2)C(=O)Nc2ccncn2)cc1Cl (centres unmarked) [Example 141, 2-(3-Chloro-4-methanesulfonyl-phenyl)-3-cyclopentyl-N-pyrimidin-4-yl-propionamide]",excellent glucokinase activator in vivo activity
17,"CS(=O)(=O)c1ccc([C@@H](CC2CCCC2)C(=O)Nc2ccncn2)cc1Cl [Example 142, 2(R)-(3-Chloro-4-methanesulfonyl-phenyl)-3-cyclopentyl-N-pyrimidin-4-yl-propionamide]",excellent glucokinase activator in vivo activity
18,"Cc1nccc(NC(=O)C(CC2CCCC2)c2ccc(S(C)(=O)=O)c(Cl)c2)n1 (centres unmarked) [Example 143, 2-(3-Chloro-4-methanesulfonyl-phenyl)-3-cyclopentyl-N-(2-methyl-pyrimidin-4-yl)-propionamide]",excellent glucokinase activator in vivo activity
19,"Cc1nccc(NC(=O)[C@H](CC2CCCC2)c2ccc(S(C)(=O)=O)c(Cl)c2)n1 [Example 144, 2(R)-(3-Chloro-4-methanesulfonyl-phenyl)-3-cyclopentyl-N-(2-methyl-pyrimidin-4-yl)-propionamide]",excellent glucokinase activator in vivo activity
20,"Cc1nccc(NC(=O)C(CC2CCCC2)c2ccc(S(C)(=O)=O)c(Br)c2)n1 (centres unmarked) [Example 148(B)(a), 2-(3-Bromo-4-methanesulfonyl-phenyl)-3-cyclopentyl-N-(2-methyl-pyrimidin-4-yl)-propionamide]",excellent glucokinase activator in vivo activity
21,"CS(=O)(=O)c1ccc(C(CC2CCCC2)C(=O)Nc2cnccn2)cc1Br (centres unmarked) [Example 149, 2-(3-Bromo-4-methanesulfonyl-phenyl)-3-cyclopentyl-N-pyrazin-2-yl-propionamide]",excellent glucokinase activator in vivo activity
22,"CS(=O)(=O)c1ccc(C(CC2CCCC2)C(=O)Nc2ccncn2)cc1C(F)(F)F (centres unmarked) [Example 155(B)(a), 3-Cyclopentyl-2-(4-methanesulfonyl-3-trifluoromethyl-phenyl)-N-pyrimidin-4-yl-propionamide]",excellent glucokinase activator in vivo activity
23,"CS(=O)(=O)c1ccc(C(CC2CCCC2)C(=O)Nc2cnccn2)cc1C(F)(F)F (centres unmarked) [Example 155(B)(b), 3-Cyclopentyl-2-(4-methanesulfonyl-3-trifluoromethyl-phenyl)-N-pyrazin-2-yl-propionamide]",excellent glucokinase activator in vivo activity

# Test system: not given
# Experiment: not given
# Details: not given
row,Compound,melting point
1,"CS(=O)(=O)c1ccc(C(CC2CCCC2)C(=O)Nc2ccc(Br)cn2)cc1C(F)(F)F (centres unmarked) [Example 156(A), N-(5-Bromo-pyridin-2-yl)-3-cyclopentyl-2-(4-methanesulfonyl-3-trifluoromethyl-phenyl)-propionamide]",81 to 85 °C
2,"CS(=O)(=O)c1ccc(C(CC2CCCC2)C(=O)Nc2ccncn2)cc1[N+](=O)[O-] (centres unmarked) [Example 158, 3-Cyclopentyl-2-(4-methanesulfonyl-3-nitro-phenyl)-N-pyrimidin-4-yl-propionamide]",91 to 95 °C
3,"Cc1nccc(NC(=O)C(CC2CCCC2)c2ccc(S(C)(=O)=O)c([N+](=O)[O-])c2)n1 (centres unmarked) [Example 159, 3-Cyclopentyl-2-(4-methanesulfonyl-3-nitro-phenyl)-N-(2-methyl-pyrimidin-4-yl)-propionamide]",96 to 99 °C
4,"CS(=O)(=O)c1ccc(C(CC2CCCC2)C(=O)Nc2cc[nH]c(=O)n2)cc1[N+](=O)[O-] (centres unmarked) [Example 160, 3-Cyclopentyl-2-(4-methanesulfonyl-3-nitro-phenyl)-N-(2-oxo-1,2-dihydro-pyrimidin-4-yl)-propionamide]",256 to 258 °C (dec.)
5,"CS(=O)(=O)c1ccc(C(CC2CCCC2)C(=O)Nc2cnccn2)cc1[N+](=O)[O-] (centres unmarked) [Example 161, 3-Cyclopentyl-2-(4-methanesulfonyl-3-nitro-phenyl)-N-pyrazin-2-yl-propionamide]",104 to 108 °C
6,"CS(=O)(=O)c1ccc(C(CC2CCCC2)C(=O)Nc2ncc[nH]2)cc1[N+](=O)[O-] (centres unmarked) [Example 162, 3-Cyclopentyl-N-(1 H-imidazol-2-yl)-2-(4-methanesulfonyl-3-nitro-phenyl)-propionamide]",243 to 244 °C
7,"O=C(Nc1ccc(Br)cn1)C(CC1CCCC1)c1ccc(Cl)c([N+](=O)[O-])c1 (centres unmarked) [Example 164, N-(5-Bromo-pyridin-2-yl)-2-(4-chloro-3-nitro-phenyl)-3-cyclopentyl-propionamide]",128 to 130 °C
8,"O=C(Nc1ccncn1)C(CC1CCCC1)c1cccc(C(F)(F)F)c1 (centres unmarked) [Example 165(A), 3-Cyclopentyl-N-pyrimidin-4-yl-2-(3-trifluoromethyl-phenyl)-propionamide]",113 to 115 °C
9,"O=C(Nc1ccc([N+](=O)[O-])cn1)C(CC1CCCC1)c1ccc(F)c(C(F)(F)F)c1 (centres unmarked) [Example 167(A), 3-Cyclopentyl-2-(4-fluoro-3-trifluoromethyl-phenyl)-N-(5-nitro-pyridin-2-yl)-propionamide]",121 to 122 °C
